According to patent publication US7951824B2, “4-aryl-pyridine-2-carboxyamide derivatives” (Hoffman-La Roche Inc., priority 2006, dated 2011):

biological target: T1, human mGlu 5a receptor (Homo sapiens, UniProt P41594); experiment: [3H]MPEP competition binding on membranes of EBNA cells transfected with human mGlu 5a receptor; settings: competition with [3H]MPEP (2 nM), 1 h at 4° C., EBNA cell membranes
T1 construct: expressed in transfected cells; host or cells: EBNA cells (transient transfection), membrane homogenates
Experimental: The pharmacological activity of the compounds was tested using the following method: For binding experiments, cDNA encoding human mGlu 5a receptor was transiently transfected into EBNA cells using a procedure described by Schlaeger and Christensen [Cytotechnology 15:1-13 (1998)]. Cell membrane homogenates were stored at −80° C. until the day of assay where upon they were thawed and resuspended and polytronised in 15 mM Tris-HCl, 120 mM NaCl, 100 mM KCl, 25 mM CaCl2, 25 mM MgCl2 binding buffer at pH 7.4 to a final assay concentration of 20 μg protein/well.
Saturation isotherms were determined by addition of twelve [^3H] MPEP concentrations (0.04-100 nM) to these membranes (in a total volume of 200 μd) for 1 h at 4° C. Competition experiments were performed with a fixed concentration of [^3H]MPEP (2 nM) and IC50 values of test compounds evaluated using 11 concentrations (0.3-10,000 nM). Incubations were performed for 1 h at 4° C.
At the end of the incubation, membranes were filtered onto unifilter (96-well white microplate with bonded GF/C filter preincubated 1 h in 0.1% PEI in wash buffer, Packard Bio-Science, Meriden, Conn.) with a Filtermate 96 harvester (Packard BioScience) and washed 3 times with cold 50 mM Tris-HCl, pH 7.4 buffer. Nonspecific binding was measured in the presence of 10 μM MPEP. The radioactivity on the filter was counted (3 min) on a Packard Top-count microplate scintillation counter with quenching correction after addition of 45 μl of microscint 40 (Canberra Packard S. A., Zürich, Switzerland) and shaking for 20 min.
For binding experiments the Ki values of the compounds tested are given. The Ki value is defined by the following formula: KiIC50/[1+L/Kd] in which the IC50 values are those concentrations of the compounds tested which cause 50% inhibition of the competing radioligand ([^3H]MPEP). L is the concentration of radioligand used in the binding experiment and the Kd value of the radioligand is empirically determined for each batch of membranes prepared.

T1 sequence (P41594 21-1180 isoform P41594-2 limits assumed): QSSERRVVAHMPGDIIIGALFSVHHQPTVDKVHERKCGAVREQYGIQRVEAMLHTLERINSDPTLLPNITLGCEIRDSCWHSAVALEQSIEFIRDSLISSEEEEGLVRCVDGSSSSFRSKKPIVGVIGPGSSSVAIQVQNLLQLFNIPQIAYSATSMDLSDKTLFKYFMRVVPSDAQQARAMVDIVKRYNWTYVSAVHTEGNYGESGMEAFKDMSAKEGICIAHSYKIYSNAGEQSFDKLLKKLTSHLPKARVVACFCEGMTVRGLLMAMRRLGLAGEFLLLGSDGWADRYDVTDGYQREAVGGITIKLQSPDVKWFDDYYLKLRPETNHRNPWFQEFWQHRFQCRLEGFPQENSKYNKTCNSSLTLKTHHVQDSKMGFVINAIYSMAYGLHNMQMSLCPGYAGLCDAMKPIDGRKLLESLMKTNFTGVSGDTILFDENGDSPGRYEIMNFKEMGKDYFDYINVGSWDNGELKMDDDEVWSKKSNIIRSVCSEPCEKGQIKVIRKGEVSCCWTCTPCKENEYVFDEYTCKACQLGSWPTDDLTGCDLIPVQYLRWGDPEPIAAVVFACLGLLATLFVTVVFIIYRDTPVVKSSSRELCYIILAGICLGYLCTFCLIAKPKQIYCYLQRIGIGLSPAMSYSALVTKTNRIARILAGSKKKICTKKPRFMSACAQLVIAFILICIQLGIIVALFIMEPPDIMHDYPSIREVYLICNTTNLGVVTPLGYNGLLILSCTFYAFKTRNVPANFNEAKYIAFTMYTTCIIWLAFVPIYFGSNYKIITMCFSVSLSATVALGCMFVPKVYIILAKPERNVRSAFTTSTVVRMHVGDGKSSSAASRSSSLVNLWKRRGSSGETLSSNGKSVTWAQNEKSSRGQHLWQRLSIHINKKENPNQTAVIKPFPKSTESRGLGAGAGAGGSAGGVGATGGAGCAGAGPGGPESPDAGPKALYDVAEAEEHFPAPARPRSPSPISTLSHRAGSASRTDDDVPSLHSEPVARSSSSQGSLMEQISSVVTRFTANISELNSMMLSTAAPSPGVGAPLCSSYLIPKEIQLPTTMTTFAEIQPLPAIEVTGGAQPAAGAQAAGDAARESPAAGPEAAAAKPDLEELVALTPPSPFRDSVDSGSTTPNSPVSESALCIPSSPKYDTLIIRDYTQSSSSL

Row | Ki [nM] | SMILES
1 | 290 | Cc1cc(-c2cc(C)nc(C(=O)Nc3nc(C#N)cs3)c2)ccn1 [Example 185, 6,2′-Dimethyl-[4,4′]bipyridinyl-2-carboxylic acid (4-cyano-thiazol-2-yl)-amide]
2 | 110 | Cc1cc(-c2cc(F)cc(F)c2)nc(C(=O)Nc2nc(C)cs2)n1 [Example 192, 4-(3,5-Difluoro-phenyl)-6-methyl-pyrimidine-2-carboxylic acid (4-methyl-thiazol-2-yl)-amide]
3 | 221 | Cc1cc(-c2cc(F)cc(F)c2)nc(C(=O)Nc2ccnc(Cl)c2)n1 [Example 194, 4-(3,5-Difluoro-phenyl)-6-methyl-pyrimidine-2-carboxylic acid (2-chloro-pyridin-4-yl)-amide]
4 | 181 | Cc1cc(-c2cc(F)cc(F)c2)nc(C(=O)Nc2ccn(C)n2)n1 [Example 198, 4-(3,5-Difluoro-phenyl)-6-methyl-pyrimidine-2-carboxylic acid (1-methyl-1H-pyrazol-3-yl)-amide]
5 | 14 | Cc1cc(-c2cc(F)cc(F)c2)cc(C(=O)Nc2nc(C)c(F)s2)n1 [Example 199, 4-(3,5-Difluoro-phenyl)-6-methyl-pyridine-2-carboxylic acid (5-fluoro-4-methyl-thiazol-2-yl)-amide]
6 | 81 | Cc1cc(-c2cc(F)cc(F)c2)cc(C(=O)Nc2ncc(F)s2)n1 [Example 200, 4-(3,5-Difluoro-phenyl)-6-methyl-pyridine-2-carboxylic acid (5-fluoro-thiazol-2-yl)-amide]
